In patent US20030162834A1, “Natural physiologically active material effective on fish diseases and fish food containing the material” (priority 1998, published 2003):

Key:
Cryptocaryon irritans = assay: Trial 7: vitamin C enhancement trial on red sea bream; format: in vivo; conditions: oral
Text: Fish tested: Red sea bream weighing approximately 15.8 g in average.
Trial groups: Three groups, i.e., an octanoic-acid added group in which fish were fed diets added with octanoic acid, an octanoic-acid added/vitamin-C enhanced group in which fish were fed diets added with both octanoic acid and vitamin C, and a control group in which fish were fed diets not added with octanoic acid. The feeding rate was 3% of fish weight/day for each group.
Trial diets: The diets added with octanoic acid were prepared by spraying 2.5 g of octanoic acid to 1 kg of commercially available pellets for red sea bream. The diets added with both octanoic acid and vitamin C were prepared by spraying 200 mg of vitamin C, dissolved in water, to 1 kg of the above diets added with octanoic acid. The control group fish were fed the commercially available pellets for red sea bream.
Challenge trial: Each 30 pieces of fish from among a shoal of fish, in which no diseases such as Cryptocaryon irritans infection were found, were put in a 100-liter water tank, and were fed the respective trial diets. After 5 days, approximately 2000 individuals of theronts of Cryptocaryon irritans were put into each water tank to infect the fish while water flow was stopped for 1 hour. Then, bleeding was continued for 60 days. During the trial period, the water temperature was 24+−1 degrees centigrade and the water was exchanged at 20 cycles/day.
Evaluation was made by sampling 5 pieces of fish from each group after 18 and 31 days from the start of the challenge, comparing the number of the parasites attaching to the gill of each fish, and comparing mortality of the fish during the trial period between the respective groups.

[1] = Growth trial: tiger puffer fed basal diet supplemented with 0.5% octanoic acid; format: in vivo
Protocol: The inventors conducted trials using tiger puffer to test whether the octanoic acid adversely affects growth of fish. Two trial groups were prepared; i.e., one group fed the basal diet supplemented with 0.5% of octanoic acid (5 g of octanoic acid added for 1 kg of diet), and the other group fed the basal diet alone. Trial conditions were that 50 pieces of tiger puffer for each group were put in a 1-t water tank, and the puffs were fed twice per day, i.e., in the morning and evening. A bleeding trial period was 45 days and the water temperature was 25+−1 degrees centigrade during the trial period.

## CCCCCCCC(=O)O [octanoic acid]
Cryptocaryon irritans; 2.5 g octanoic acid per 1 kg pellets (with or without 200 mg vitamin C per kg)
  number of parasites attaching to the gill after 18 and 31 days: apparently fewer
Cryptocaryon irritans; 2.5 g octanoic acid per 1 kg pellets (with or without 200 mg vitamin C per kg), 60 days
  fish mortality during the trial: all dead
Cryptocaryon irritans; 2.5 g octanoic acid per 1 kg pellets
  time at which the fish began dying, versus control: later
[1]; continued for succeeding seven months
  died fish: no died fish
[1]; in vivo
  adverse effects on puffer growth: adverse effects on the puffer growth were not found
  content of octanoic acid in the edible muscle: no octanoic acid was detected
